Measurements from patent US20080058213A1, “Benzoxazole Compounds” (priority 2004, published 2008).

How the values were obtained:
wheat [1] = test: Soil treatment test for upland field (Test Example 2): phytotoxicity to wheat; assay type: in vivo; settings: soil treatment before germination, examined after 3 weeks; further: key: 0: normal growth; 1: little damaged; 2: low damaged; 3: medium damaged; 4: serious damaged; 5: complete killed
[2] = system: Monochoria (Monochoria vaginalis); test: Weed control test for paddy field (Test Example 1): Monochoria; assay type: in vivo; settings: paddy pots, treated at 1.0 leaf stage of barnyard grass, examined after 3 weeks
Procedure, shortened: (§1)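 Paddy-soil pots flooded to 3 cm, seeded with weeds and transplanted with 2.0-leaf rice. Wettable-powder formulations diluted in water and applied dropwise at a prescribed active-ingredient dose per are at barnyard grass 1.0-leaf stage. After 3 weeks in a 25 °C glasshouse, growth inhibition versus untreated control scored 0–5 (0: <20%; 5: 100%).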

[3] = system: velvetleaf (Abutilon theophrasti); test: Soil treatment test for upland field (Test Example 2): velvetleaf; assay type: in vivo; settings: soil treatment before germination, examined after 3 weeks
Procedure, shortened: (§2)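 Pre-emergence soil spray: wettable powder diluted in water, applied at 15 L/are to seeded upland soil in 1/3,000 are pots. Glasshouse, avg 25° C, 3 wk. Score 0–5 by % growth inhibition vs untreated (0: <20%; 5: 100%).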

[4] = system: common lambsquaters (Chenopodium album); test: Soil treatment test for upland field (Test Example 2): common lambsquaters; assay type: in vivo; settings: soil treatment before germination, examined after 3 weeks
Procedure, shortened: as §2

[5] = system: common purslane (Portulaca oleracea); test: Soil treatment test for upland field (Test Example 2): common purslane; assay type: in vivo; settings: soil treatment before germination, examined after 3 weeks
Procedure, shortened: as §2

wheat [6] = test: Foliage treatment test for upland field (Test Example 3): phytotoxicity to wheat; assay type: in vivo; settings: foliage treatment at 1.0-2.0 leaf stage of southern crabgrass, examined after 3 weeks; further: key: 0: normal growth; 1: little damaged; 2: low damaged; 3: medium damaged; 4: serious damaged; 5: complete killed
Procedure, shortened: (§3)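 Crops sown in compost-mixed soil pots, kept in a glasshouse at 25° C. average. Effect scored after 3 weeks versus untreated control on a 0–5 scale (0 normal growth, 5 complete kill).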

corn [7] = test: Foliage treatment test for upland field (Test Example 3): phytotoxicity to corn; assay type: in vivo; settings: foliage treatment at 1.0-2.0 leaf stage of southern crabgrass, examined after 3 weeks; further: key: 0: normal growth; 1: little damaged; 2: low damaged; 3: medium damaged; 4: serious damaged; 5: complete killed
Procedure, shortened: as §3

common lambsquaters = test: Foliage treatment test for upland field (Test Example 3): common lambsquaters; assay type: in vivo; settings: foliage treatment at 1.0-2.0 leaf stage of southern crabgrass, examined after 3 weeks
Procedure, shortened: (§4)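 Wettable powders diluted to the prescribed dose and sprayed at 15 L/are at the 1.0-2.0 leaf stage of southern crabgrass on glasshouse-grown plants (25° C average). Effect graded 0-5 after 3 weeks from growth inhibition versus untreated control (0: <20% to 5: 100%).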

soybean [8] = test: Soil treatment test for upland field (Test Example 2): phytotoxicity to soybean; assay type: in vivo; settings: soil treatment before germination, examined after 3 weeks; further: key: 0: normal growth; 1: little damaged; 2: low damaged; 3: medium damaged; 4: serious damaged; 5: complete killed
common purslane = test: Foliage treatment test for upland field (Test Example 3): common purslane; assay type: in vivo; settings: foliage treatment at 1.0-2.0 leaf stage of southern crabgrass, examined after 3 weeks
Procedure, shortened: as §4

[9] = system: barnyard grass (Echinochloa crusgalli); test: Weed control test for paddy field (Test Example 1): barnyard grass; assay type: in vivo; settings: paddy pots, treated at 1.0 leaf stage of barnyard grass, examined after 3 weeks
Procedure, shortened: as §1

[10] = system: Japanese bulrush (Scirpus juncoides); test: Weed control test for paddy field (Test Example 1): Japanese bulrush; assay type: in vivo; settings: paddy pots, treated at 1.0 leaf stage of barnyard grass, examined after 3 weeks
Procedure, shortened: as §1

slender amaranth = test: Foliage treatment test for upland field (Test Example 3): slender amaranth; assay type: in vivo; settings: foliage treatment at 1.0-2.0 leaf stage of southern crabgrass, examined after 3 weeks
Procedure, shortened: as §4

soybean [11] = test: Foliage treatment test for upland field (Test Example 3): phytotoxicity to soybean; assay type: in vivo; settings: foliage treatment at 1.0-2.0 leaf stage of southern crabgrass, examined after 3 weeks
Procedure, shortened: as §3

[12] = system: southern crabgrass (Digitaria ciliaris); test: Soil treatment test for upland field (Test Example 2): southern crabgrass; assay type: in vivo; settings: soil treatment before germination, examined after 3 weeks
Procedure, shortened: as §2

[13] = system: slender amaranth (Amaranthus viridis); test: Soil treatment test for upland field (Test Example 2): slender amaranth; assay type: in vivo; settings: soil treatment before germination, examined after 3 weeks
Procedure, shortened: as §2

southern crabgrass = test: Foliage treatment test for upland field (Test Example 3): southern crabgrass; assay type: in vivo; settings: foliage treatment at 1.0-2.0 leaf stage of southern crabgrass, examined after 3 weeks
Procedure, shortened: as §4

corn [14] = test: Soil treatment test for upland field (Test Example 2): phytotoxicity to corn; assay type: in vivo; settings: soil treatment before germination, examined after 3 weeks
velvetleaf = test: Foliage treatment test for upland field (Test Example 3): velvetleaf; assay type: in vivo; settings: foliage treatment at 1.0-2.0 leaf stage of southern crabgrass, examined after 3 weeks
Procedure, shortened: as §4

[15] = system: flat sedge (Cyperus serotinus); test: Weed control test for paddy field (Test Example 1): flat sedge; assay type: in vivo; settings: paddy pots, treated at 1.0 leaf stage of barnyard grass, examined after 3 weeks
Procedure, shortened: as §1

rice plant = test: Weed control test for paddy field (Test Example 1): phytotoxicity to rice plant; assay type: in vivo; settings: paddy pots, treated at 1.0 leaf stage of barnyard grass, examined after 3 weeks
Procedure, shortened: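 Rice transplanted at 2.0 leaf stage into flooded paddy soil pots (3 cm water) sown with weeds. Wettable powder applied dropwise at a prescribed active ingredient dose per are at 1.0 leaf stage of barnyard grass. Kept 3 weeks in glasshouse at 25 °C. Phytotoxicity scored 0 (normal) to 5 (killed) against untreated control.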

FC(F)(F)COC/C(=C\c1cccc(C(F)(F)F)c1)c1nc2cc(C(F)(F)F)ccc2o1 [Compound 85, (E)-2-(5-trifluoromethylbenzoxazol-2-yl)-1-(3-trifluoromethylphenyl)-3-(2,2,2-trifluoroethoxy)propene]
Phytotoxicity wheat (wheat [1]; dose 2.5 g ai/a): 0
Phytotoxicity wheat (wheat [1]; dose 5 g ai/a): 0
Herbicidal Effect Monochoria vaginalis ([2]; dose 2.5 g ai/a): 5 (100%)
Herbicidal Effect Monochoria vaginalis ([2]; dose 5 g ai/a): 5 (100%)
Herbicidal Effect velvetleaf ([3]; dose 2.5 g ai/a): 5 (100%)
Herbicidal Effect velvetleaf ([3]; dose 5 g ai/a): 5 (100%)
Herbicidal Effect common lambsquaters ([4]; dose 2.5 g ai/a): 5 (100%)
Herbicidal Effect common lambsquaters ([4]; dose 5 g ai/a): 5 (100%)
Herbicidal Effect common purslane ([5]; dose 2.5 g ai/a): 5 (100%)
Herbicidal Effect common purslane ([5]; dose 5 g ai/a): 5 (100%)
Phytotoxicity wheat (wheat [6]; dose 2.5 g ai/a): 1
Phytotoxicity wheat (wheat [6]; dose 5 g ai/a): 1
Phytotoxicity corn (corn [7]; dose 2.5 g ai/a): 1
Phytotoxicity corn (corn [7]; dose 5 g ai/a): 1
Herbicidal Effect Common lambsquatters (common lambsquaters; dose 2.5 g ai/a): 5 (100%)
Herbicidal Effect Common lambsquatters (common lambsquaters; dose 5 g ai/a): 5 (100%)
Phytotoxicity soybean (soybean [8]; dose 2.5 g ai/a): 0
Phytotoxicity soybean (soybean [8]; dose 5 g ai/a): 0
Herbicidal Effect common purslane (common purslane; dose 2.5 g ai/a): 5 (100%)
Herbicidal Effect common purslane (common purslane; dose 5 g ai/a): 5 (100%)
Herbicidal Effect Barnyard grass ([9]; dose 2.5 g ai/a): 4 (80%-less than 100%)
Herbicidal Effect Barnyard grass ([9]; dose 5 g ai/a): 5 (100%)
Herbicidal Effect Japanese bulrush ([10]; dose 2.5 g ai/a): 4 (80%-less than 100%)
Herbicidal Effect Japanese bulrush ([10]; dose 5 g ai/a): 5 (100%)
Herbicidal Effect slender amaranth (slender amaranth; dose 2.5 g ai/a): 5 (100%)
Herbicidal Effect slender amaranth (slender amaranth; dose 5 g ai/a): 5 (100%)
Phytotoxicity soybean (soybean [11]; dose 2.5 g ai/a): 2
Phytotoxicity soybean (soybean [11]; dose 5 g ai/a): 2
melting point: 86 to 89 °C
Herbicidal Effect southern crabgrass ([12]; dose 2.5 g ai/a): 5 (100%)
Herbicidal Effect southern crabgrass ([12]; dose 5 g ai/a): 5 (100%)
Herbicidal Effect slender amaranth ([13]; dose 2.5 g ai/a): 5 (100%)
Herbicidal Effect slender amaranth ([13]; dose 5 g ai/a): 5 (100%)
Herbicidal Effect southern crabgrass (southern crabgrass; dose 2.5 g ai/a): 5 (100%)
Herbicidal Effect southern crabgrass (southern crabgrass; dose 5 g ai/a): 5 (100%)
Phytotoxicity corn (corn [14]; dose 2.5 g ai/a): 0
Phytotoxicity corn (corn [14]; dose 5 g ai/a): 0
Herbicidal Effect velvetleaf (velvetleaf; dose 2.5 g ai/a): 5 (100%)
Herbicidal Effect velvetleaf (velvetleaf; dose 5 g ai/a): 5 (100%)
Herbicidal Effect Flat sedge ([15]; dose 2.5 g ai/a): 3 (60%-less than 80%)
Herbicidal Effect Flat sedge ([15]; dose 5 g ai/a): 4 (80%-less than 100%)
Phytotoxicity Rice plant (rice plant; dose 2.5 g ai/a): 0
Phytotoxicity Rice plant (rice plant; dose 5 g ai/a): 0
